Literature values as cited in article PMC10649572 (International Journal of Molecular Sciences, 2023).
No end group written: not given here.

Target: T1, CaM^WT (Homo sapiens, UniProt P0DP23)
T1 construct: made in house; host or cells: Escherichia coli BL21-CodonPlus(DE3)
Details: in the presence and absence of Ca^2+; ref [38]

For LMRMLSLKSLKKQMKKV [Peptide F], the “interaction with CaM” value is listed as “significant affinity”.
